Source: PMC9973015 (mBio, 2023)

Key:
SARS-CoV-2 WT-GHB-03021 = assay: microbe, parasite or virus in culture; assay type: cell-based; details: Severe acute respiratory syndrome coronavirus 2, Vero C1008, read-out: SARS-CoV-2 WT-GHB-03021 EC50
SARS-CoV-2 WT-USA-WA1 = assay: microbe, parasite or virus in culture; assay type: cell-based; details: Severe acute respiratory syndrome coronavirus 2, Vero C1008, read-out: SARS-CoV-2 WT-USA-WA1 EC50
human cathepsin L = human cathepsin L (Homo sapiens, UniProt P07711); assay: biochemical
in vitro = details: African green monkey

Chain of human cathepsin L (P07711 114-333): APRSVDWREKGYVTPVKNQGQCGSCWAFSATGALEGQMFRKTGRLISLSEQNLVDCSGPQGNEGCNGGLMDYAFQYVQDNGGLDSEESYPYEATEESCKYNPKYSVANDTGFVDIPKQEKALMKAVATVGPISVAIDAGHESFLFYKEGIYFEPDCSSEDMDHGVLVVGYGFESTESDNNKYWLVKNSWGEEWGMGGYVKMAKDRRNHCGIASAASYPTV

SMILES | EC50 (SARS-CoV-2 WT-GHB-03021) [nM] | EC50 (SARS-CoV-2 WT-USA-WA1) [nM] | IC50 (human cathepsin L) [nM] | effect on the viability of uninfected host cells (VeroE6 cells) | CC50 (in vitro) [nM]
COc1cccc2[nH]c(C(=O)N3C[C@@H]4CCC[C@@H]4[C@H]3C(=O)N[C@@H](C[C@@H]3CCCNC3=O)C(=O)CO)cc12 [ALG-097161, (1S,3aR,6aS)-N-((S)-4-Hydroxy-3-oxo-1-((S)-2-oxopiperidin-3-yl)butan-2-yl)-2-(4-methoxy-1H-indole-2-carbonyl)octahydrocyclopenta[c]pyrrole-1-carboxamide] | 590 | 600 | > 10000 | no effect | > 10000
Cn1cnc(Cn2c(=O)[nH]/c(=N\c3cc4cn(C)nc4cc3Cl)n(Cc3cc(F)c(F)cc3F)c2=O)n1 [Ensitrelvir, ensitrelvir] | – | 210 | > 10000 | – | –
CC(C)(C)[C@H](NC(=O)C(F)(F)F)C(=O)N1C[C@H]2[C@@H]([C@H]1C(=O)N[C@H](C#N)C[C@@H]1CCNC1=O)C2(C)C [Nirmatrelvir, nirmatrelvir] | 120 | 110 | – | – | > 10000
COc1cccc2[nH]c(C(=O)N[C@@H](CC(C)C)C(=O)N[C@@H](C[C@@H]3CCNC3=O)C(=O)CO)cc12 [PF-00835231] | 190 | – | 130 | – | > 10000
